From patent US20130052214A1, “IDENTIFICATION OF A PEPTIDE(S) THAT INDUCES AUTOIMMUNE ANTERIOR UVEITIS” (BOARD OF TRUSTEES OF THE UNIVERSITY OF ARKANSAS, priority 2011, published 2013)

System: Lewis rats
Assay: Induction of experimental autoimmune anterior uveitis (EAAU) by hind footpad immunization with MAA-derived peptides in CFA
Type: in vivo, rat
Settings: for severity of EAAU, clinical and histopathologic examination: 250 μg peptide in CFA compared with 75 μg bovine MAA in CFA, histology at day 17 and day 20 post-immunization; for induction of EAAU: single-dose hind footpad immunization, emulsified 1:1 in CFA, 250 μg peptide or 75 μg bovine MAA, examined daily day 7 to 30 post-immunization
Description: Peptides having the sequence of SEQ ID NO. 1 and SEQ ID NO. 2 were solubilized in sterile phosphate buffered saline (PBS) before use. Lewis rats were immunized separately with 100 μl of stable emulsion containing 250 μg of peptide SEQ ID NO. 1 (n=9 rats) or peptide SEQ ID NO. 2 (n=9 rats) emulsified (1:1) in complete Freund's adjuvant (CFA) using a single-dose induction protocol in the hind footpad to induce EAAU. Control animals (n=9 rats) received 75 μg of bovine melanin associated antigen (MAA) emulsified (1:1) in CFA. Animals in each group were examined daily between day 7 and 30, post-immunization, to determine the time of onset and progression of clinical disease in EAAU. Two animals from each group were sacrificed at day 17 and day 20 post-immunization and eyes were harvested for histological analysis to determine the severity of disease and degree of inflammation. Lewis rats injected with MAA peptide SEQ ID NO. 1 or MAA peptide SEQ ID NO. […] 1 (FIGS. 1A and 1D) and peptide SEQ ID NO. […] As shown in all of the Figs., the iris (I) and the ciliary body (CB) were infiltrated with inflammatory cells.

Row | Sequence | severity of EAAU, clinical and histopathologic examination | induction of EAAU
1 | GEPGNIGFPGPKGPSGDPGKAGEKG (listed as Bos taurus) [SEQ ID NO. 1, truncated peptide derived from Melanin Associated Antigen (MAA)] | less severe than that induced by bovine MAA | developed EAAU
2 | HAGLAGARGAPGPDGNNGAQGPPGL (listed as Bos taurus) [SEQ ID NO. 2, truncated peptide derived from Melanin Associated Antigen (MAA)] | less severe than that induced by bovine MAA | developed EAAU
